Measurements taken from patent publication US10179773B2, “Isoxazole carboxamides as irreversible SMYD inhibitors” (EPIZYME, INC., priority 2014, dated 2019).
pIC50: −log10 of the molar value.

Experiments:
SMYD3 [1] = biological target: T1, SMYD3 (Homo sapiens (Human), UniProt Q9H7B4); test: SMYD3 Biochemical Assay (MEKK2 protein substrate, 3H-SAM, SPA); conditions: 30 min preincubation with SMYD3, average of n = 1 to n = 50, read-out: SMYD3 Biochem IC50
Description: S-adenosylmethionine (SAM), S-adenosylhomocysteine (SAH), Tris, Tween20, dimethylsulfoxide (DMSO), bovine skin gelatin (BSG), and Tris(2-carboxyethyl)phosphine hydrochloride solution (TCEP) were purchased from Sigma-Aldrich at the highest level of purity possible. ^3H-SAM was purchase from American Radiolabeled Chemicals with a specific activity of 80 Ci/mmol. 384-well opaque white OptiPlates and SPA beads (Perkin Elmer, catalog # RPNQ0013) were purchased from PerkinElmer.
N-terminally GST-tagged MEKK2 (MAP3K2) protein corresponding to reference sequence AAF63496.3 was purchased from Life Technologies (catalog # PV4010). This protein was expressed in High Five insect cells and purified to >85% purity. Protein identity was confirmed by MS/MS analysis after proteolytic digestion. The protein sequence used was:
Full-length human SMYD3 isoform 1 (BAB86333) was inserted into a modified pET21b plasmid containing a His6 tag and TEV and SUMO cleavage sites. Because two common variants of SMYD3 exist in the population, site directed mutagenesis was subsequently performed to change amino acid 13 from an asparagine to a lysine, resulting in plasmid pEPZ533. A lysine at position 13 conforms to the more commonly occurring sequence (NP_001161212).
E. coli (BL21 codonplus RIL strain, Stratagene) were transformed with plasmid pEPZ553 by mixing competent cells and plasmid DNA and incubating on ice for 30 minutes followed by heat shock at 42° C. for 1 minute and cooling on ice for 2 minutes. Transformed cells were grown and selected on LB agar with 100 μg/mL ampicillin and 17 μg/mL chloramphenicol at 37° C. overnight. A single clone was used to inoculate 200 mL of LB medium with 100 μg/mL ampicillin and 17 μg/mL chloramphenicol and incubated at 37° C. on an orbital shaker at 180 rpm. Once in log growth, the culture was diluted 1:100 into 2 L of LB medium and grown until OD600 was about 0.3 after which the culture was incubated at 15° C. and 160 rpm. Once OD600 reached about 0.4, IPTG was added to a final concentration of 0.1 mM and the cells were grown overnight at 15° C. and 160 rpm. Cells were harvested by centrifugation at 8000 rpm, for 4 minutes at 4° C. and stored at −80° C. for purification.
Expressed full-length human His-tagged SMYD3 protein was purified from cell paste by Nickel affinity chromatography after equilibration of the resin with Buffer A (25 mM Tris, 200 mM NaCl, 5% glycerol, 5 mM β-mercaptoethanol, pH7.8). The column was washed with Buffer B (Buffer A plus 20 mM imidazole) and His-tagged SMYD3 was eluted with Buffer C (Buffer A plus 300 mM imidazole). The His tag, TEV and SUMO cleavage sites were removed generating native SMYD3 by addition of ULP1 protein at a ratio of 1:200 (ULP1:SMYD3). Imidazole was removed by dialysis overnight in Buffer A. The dialyzed solution was applied to a second Nickel column and the native SMYD3 protein was collected from the column flow-through. The flow-through was dialyzed in Buffer D (25 mM Tris, 5% glycerol, 5 mM β-mercaptoethanol, 50 mM NaCl, pH7.8) and ULP1 was removed using a Q sepharose fast flow column. SMYD3 was eluted in Buffer A and further purified using an S200 size-exclusion column equilibrated with Buffer A. SMYD3 was concentrated to 2 mg/mL with a final purity of 89%.
The assays were all performed in a buffer consisting of 25 mM Tris-Cl pH 8.0, 1 mM TCEP, 0.005% BSG, and 0.005% Tween 20, prepared on the day of use. Compounds in 100% DMSO (1 ul) were spotted into a 384-well white opaque OptiPlate using a Bravo automated liquid handling platform outfitted with a 384-channel head (Agilent Technologies). DMSO (1 ul) was added to Columns 11, 12, 23, 24, rows A-H for the maximum signal control and 1 ul of SAH, a known product and inhibitor of SMYD3, was added to columns 11, 12, 23, 24, rows I-P for the minimum signal control. A cocktail (40 ul) containing the SMYD3 enzyme was added by Multidrop Combi (Thermo-Fisher). […]

SMYD3 [2] = biological target: T1, SMYD3; test: SMYD3 Cell Assay (Trimethyl-MEKK2 In-Cell Western, 293T/17 cells); type: cell-based; conditions: 293T/17 cells transfected with MEKK2-flag and SMYD3; 24 hours; trimethyl-MEKK2 signal; average of n = 1 to n = 50
Description: 293T/17 adherent cells were purchased from ATCC (American Type Culture Collection), Manassas, Va., USA. MEM/Glutamax medium, Optimem Reduced Serum medium, penicillin-streptomycin, 0.05% trypsin and 1× D-PBS were purchased from Life Technologies, Grand Island, N.Y., USA. PBS-10× was purchased from Ambion, Life Technologies, Grand Island, N.Y., USA. PBS with Tween 20 (PBST (10×)) was purchased from KPL, Gaithersburg, Md., USA. Tet System FBS-approved FBS US Source was purchased from Clontech, Mountain View, Calif., USA. Odyssey blocking buffer, 800CW goat anti-rabbit IgG (H+L) antibody, 680CW Goat anti-mouse IgG (H+L) and Licor Odyssey infrared scanner were purchased from Licor Biosciences, Lincoln, Nebr., USA. Tri-methyl-Lysine [A260]-MEKK2 antibody, MEKK2 and SMYD3 plasmids were made at Epizyme. Anti-flag monoclonal mouse antibody was purchased from Sigma, St. Louis, Mo., USA. Methanol was purchased from VWR, Franklin, Mass., USA. 10% Tween 20 was purchased from KPL, Inc., Gaithersburg, Md., USA. Fugene was purchased from Promega, Madison, Wis., USA. The Biotek ELx405 was purchased from BioTek, Winooski, Vt., USA. The multidrop combi was purchased from Thermo Scientific, Waltham, Mass., USA.
293T/17 adherent cells were maintained in growth medium (MEM/Glutamax medium supplemented with 10% v/v Tet System FBS and cultured at 37° C. under 5% CO2.
293T/17 cells were seeded in assay medium at a concentration of 33,333 cells per cm^2 in 30 mL medium per T150 flask and incubated at 37° C. under 5% CO2. Plasmids were prepared for delivery to cells by first mixing 1350 μL Opti-MEM with Fugene (81 μL) in a sterile Eppendorf and incubated for five minutes at room temperature (RT). MEKK2-flag (13.6 ug/T150) MEKK2 p3XFlag-CMV-14 with C-3XFlag and SMYD3 (0.151 ug/T150) SMYD3 p3XFlag-CMV-14 without C-3XFlag plasmids were aliquotted to a 1.7 mL sterile microfuge tube. The gene ID for MEKK2 and SMYD3 is NM_006609.3 and Q9H7B4, respectively. Entire volume of Opti-MEM/Fugene mixture was then added to a microfuge tube containing DNA plasmid, mixed and then incubated ×15 minutes at RT. The medium on the 293T/17 cells was refreshed, and the DNA/Fugene complex is added aseptically to each flask, rocked gently, and incubated at 37 C for 5 hours. Medium was then removed, and cells were washed once with PBS in the flask. Trypsin 0.05% (3 mL) was added and cells incubated for three minutes. Room temperature MEM+10% Tet system FBS was added and cells were mixed gently, and counted using the Vi-cell. Cells were seeded at 100,000 cells/mL in 50 μL MEM/10% Tet FBS/Pen/Strep to a 384 well black/clear poly-D-lysine coated plate containing test agent diluted in DMSO. The final top concentration of test compound was 40 μM. […] Plates were incubated×30 minutes at RT in low-airflow area, followed by incubation at 37° C. under 5% CO2 for 24 hours. Medium was aspirated from all wells of assay plates prior to fixation and permeabilization with ice cold (−20° C.) methanol (90 μL/well) for ten minutes. Plates were rinsed with PBS three times on BioTek ELx405. PBS was removed with a final aspiration, and Odyssey blocking buffer (50 μL/well) was added to each well and incubated for one hour at RT. Primary antibody solution was prepared (anti-trimethyl-MEKK2 at 1:600 dilution plus mouse anti-flag antibody at 1:10,000 dilution in diluent (Odyssey Blocking buffer+0.1% Tween 20)) and 20 μL per well was dispensed using the Multidrop Combi. Assay plates were then sealed with foil, and incubated overnight at 4° C. Plates were washed five times with PBS-Tween (1×) on Biotek ELx405 and blotted on paper towel to remove excess reagent. […]

T1 sequence (Q9H7B4 whole entry): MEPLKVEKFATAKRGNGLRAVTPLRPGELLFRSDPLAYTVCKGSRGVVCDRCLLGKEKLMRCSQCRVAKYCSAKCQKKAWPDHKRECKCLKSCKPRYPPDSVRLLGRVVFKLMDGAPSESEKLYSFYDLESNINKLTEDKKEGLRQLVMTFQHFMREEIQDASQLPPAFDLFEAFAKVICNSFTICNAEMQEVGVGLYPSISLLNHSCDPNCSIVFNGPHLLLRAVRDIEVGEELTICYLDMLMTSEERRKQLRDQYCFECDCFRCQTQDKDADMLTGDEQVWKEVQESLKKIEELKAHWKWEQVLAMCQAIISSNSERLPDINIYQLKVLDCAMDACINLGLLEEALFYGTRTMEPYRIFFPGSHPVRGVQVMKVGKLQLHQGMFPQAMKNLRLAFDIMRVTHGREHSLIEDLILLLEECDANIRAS

Compound | pIC50 (SMYD3 [1]) | pIC50 (SMYD3 [2])
C=CS(=O)(=O)N1CC(NC(=O)c2cc(C3CC3)on2)C1 [Cpd. No. 1, 5-cyclopropyl-N-(1-(vinylsulfonyl)azetidin-3-yl) isoxazole-3-carboxamide] | < 5.00 | < 5.00
O=C(NC1CCN(C(=O)CCl)CC1)c1cc(C2CC2)on1 [Cpd. No. 4, N-(1-(2-chloroacetyl)piperidin-4-yl)-5-cyclopropylisoxazole-3-carboxamide] | 4.48 | 5.18
C=CC(=O)N1CCC(NC(=O)c2cc(C3CC3)on2)CC1 [Cpd. No. 5, N-(1-acryloylpiperidin-4-yl)-5-cyclopropylisoxazole-3-carboxamide] | < 4.00 | < 5.00
C=CC(=O)N[C@H]1CC[C@H](NC(=O)c2cc(C3CC3)on2)CC1 [compound 3, N-((1r,4r)-4-acrylamidocyclohexyl)-5-cyclopropylisoxazole-3-carboxamide] | 4.13 | < 5.00
C=CS(=O)(=O)N[C@H]1CC[C@@H](NC(=O)c2cc(C3CC3)on2)CC1 [compound 8, 5-cyclopropyl-N-((1s,4s)-4-(vinylsulfonamido)cyclohexyl) isoxazole-3-carboxamide] | < 5.00 | < 5.00
C=CS(=O)(=O)N1CCC(NC(=O)c2cc(C3CC3)on2)C1 (centres unmarked) [compound 10, 5-cyclopropyl-N-(1-(vinylsulfonyl)pyrrolidin-3-yl) isoxazole-3-carboxamide] | < 4.30 | 

Further molecules by rising pIC50 (SMYD3 [1]), results first:

pIC50 (SMYD3 [1]) | pIC50 (SMYD3 [2]) | Compound
4.50 |  | C=CS(=O)(=O)N1CCC(NC(=O)c2cc(C3CC3)on2)CC1 [compound 9, 5-cyclopropyl-N-(1-(vinylsulfonyl)piperidin-4-yl) isoxazole-3-carboxamide]
4.51 |  | C=CS(=O)(=O)N[C@H]1CC[C@H](NC(=O)c2cc(C3CC3)on2)CC1 [Cpd. No. 2, 5-cyclopropyl-N-((1r,4r)-4-(vinylsulfonamido)cyclohexyl) isoxazole-3-carboxamide]
5.28 | 5.67 | C=CS(=O)(=O)N1CCC(NC(=O)c2cc(C3CC3)on2)C[C@@H]1C (stereo partly drawn) [compound 6, 5-cyclopropyl-N-((2S)-2-methyl-1-(vinylsulfonyl)piperidin-4-yl) isoxazole-3-carboxamide]
5.43 | 5.66 | C=CS(=O)(=O)N1CCC(NC(=O)c2cc(C3CC3)on2)C[C@H]1C (stereo partly drawn) [compound 7, 5-cyclopropyl-N-((2R)-2-methyl-1-(vinylsulfonyl)piperidin-4-yl) isoxazole-3-carboxamide]
